Literature values in patent US9426985B2, “Compositions and methods to modulate the rate of EBIS production from dithiocarbamate fungicides” (Dow Agrosciences LLC, priority 2012, dated 2016).

How the values were obtained:
[1] = tomato leaves

| Compound | half-life on the leaf surface | time to peak EBIS levels after application [1] |
| --- | --- | --- |
| S=C1SSC2=NCCN12 [EBIS, ethylene bisisthiocyanate sulfide] | less than 2 days |  |
| mancozeb |  | about two |
